Measured values reported in PubChem BioAssay (NCI).
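Dose response: 5 concentrations. Exposure: 48 h. Format: 96-well plates. Endpoint: linear interpolation; highest concentration if not reached. TGI is the concentration that stops growth completely.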

Experiments:
Assay in all cases: NCI tumour cell line growth inhibition, 48 h
DLD-1 colon = test system: DLD-1 colon
DMS 114 small cell lung = test system: DMS 114 small cell lung
DMS 273 small cell lung = test system: DMS 273 small cell lung
HOP-18 NSCLC = test system: HOP-18 NSCLC
KM20L2 colon = test system: KM20L2 colon
P388 leukemia = test system: P388 leukemia
P388/ADR leukemia = test system: P388/ADR leukemia
SN12K1 renal = test system: SN12K1 renal
SNB-78 CNS = test system: SNB-78 CNS
XF 498 CNS = test system: XF 498 CNS
LXFL 529 NSCLC = test system: LXFL 529 NSCLC
RXF-631 renal = test system: RXF-631 renal

Row | Structure (SMILES) | TGI (DLD-1 colon) [µM] | TGI (DMS 114 small cell lung) [µM] | TGI (DMS 273 small cell lung) [µM] | TGI (HOP-18 NSCLC) [µM] | TGI (KM20L2 colon) [µM] | TGI (P388 leukemia) [µM] | TGI (P388/ADR leukemia) [µM] | TGI (SN12K1 renal) [µM] | TGI (SNB-78 CNS) [µM] | TGI (XF 498 CNS) [µM] | TGI (LXFL 529 NSCLC) [µM] | TGI (RXF-631 renal) [µM]
1 | COc1ccc2c(c1)CCCc1cn[nH]c1-2 | > 100 | > 100 | > 100 | > 100 | > 100 | > 100 | > 100 | > 100 | > 100 | > 100 | – | –
2 | CC(C(=O)O)c1cnn(-c2ccccc2)c1-n1cccc1 (stereo not given) | > 100 | – | > 100 | > 100 | > 100 | > 100 | > 100 | > 100 | > 100 | > 100 | – | –
3 | CC[C@]12C=CCN3CC[C@@]4(c5ccc(OC)cc5N(C)[C@H]4[C@@](O)(C(=O)OC)[C@@H]1OC(C)=O)[C@@H]32 | > 200 | > 200 | > 200 | > 200 | > 164 | – | > 200 | > 200 | > 200 | > 200 | – | –
4 | Oc1ccc2ccccc2c1N=Nc1ccc(F)cc1 | – | > 100 | > 100 | > 100 | > 100 | – | – | – | – | – | > 100 | –
5 | CCOCNC(=O)N(COCC)COCC | > 100 | > 100 | – | – | > 100 | – | – | – | > 100 | > 100 | > 100 | > 100
6 | CC(C)CCN=c1cc2n(-c3ccc(Cl)cc3)c3ccccc3nc-2cc1Nc1ccc(Cl)cc1 | 68.4 | 7.63 | 56.4 | 56.6 | 19.7 | 11.7 | 10.2 | 23.7 | > 100 | 20.6 | – | –
